Measurements published in US8178135B2, “Aqueous solution of conophylline and/or conophyllidine” (Keio University, priority 2006, dated 2012).
Like-named read-outs stand apart in the source and are kept apart here.

What was measured:
[1] = Blood concentrations after oral administration of Crude extract I to rats; type: in vivo, rat
Method: One drop of Tween 80 was added to the crude extract (0.05 g) obtained in Example 1, which was suspended in 5-ml of water for injection. This suspension was administered to 5-week old rats (Crj:CD(SD) IGS, SPF, male) using a sonde by forced oral administration at a dose of 5 ml/kg body weight (n=2). Blood was taken from the orbital venous plexus of each rat at 0.5, 1, 2, 4, 8, 24 hours post administration and serum was recovered by centrifugation. Then, the concentrations of conophylline and conophyllidine in the blood were measured (Table 7) by the same method as in Example 8. As the control, water for injection containing one drop of Tween80 was administered orally at a dose of 5 ml/kg body weight (n=2) and the blood concentrations were measured in the same manner.

[2] = Concentration dissolved after neutralization with pectin or sodium polyacrylate (ethanol crude extract); type: physicochemical; conditions: for concentration in solution: Control: filled up only with distilled water, not neutralized
Method: Crude extract (250 mg) obtained in Example 1 was dissolved in 5 ml of 0.1 N hydrochloric acid. Then, after insoluble matter was removed by centrifugation (1,500×g, 5 min), the solution was dispensed in 0.5 ml aliquots into test tubes. Then, 10 μl or 100 μl of a 0.2% aqueous solution of pectin (Genue pectin type YM-150-LJ) or 0.2% aqueous solution of sodium polyacrylate (degrees of polymerization=30,000 to 40,000, manufactured by Wako Pure Chemical Industries, Ltd.) was added and filled up to a total volume of 2 ml with distilled water. Meanwhile, only distilled water was added to some of the test tubes in a total volume of […] (without an additive).
Subsequently, the solution, after being adjusted to pH 6.0 with sodium carbonate aqueous solution, was filled up to a total volume of 2 ml and was centrifuged at 5,000×g for 10 min. The supernatant was recovered and the concentrations of conophylline and conophyllidine were measured. Meanwhile, the concentrations of conophylline and conophyllidine in the solutions, which was made by filled up to a total volume of 2.5 ml only with distilled water, were also measured as the control.

[3] = Concentration dissolved after neutralization with pectin or sodium polyacrylate (partially purified by reversed phase column); type: physicochemical; conditions: for concentration in solution: Control: not neutralized
Method: Crude extract I (250 mg) obtained in Example 1 was dissolved in 5 ml of ethanol. Water was added to this solution in a total volume of 50 ml, which was passed through a glass column packed with about 5 ml of ODS resin (DM1020T, manufactured by Fuji Silysia Chemical Ltd.). After unadsorbed matter was removed by washing the column with 10 ml of distilled water, the adsorbed component was eluted with 10 ml of ethanol. Then, after the solvent was removed by centrifugal concentration, the concentrate was dissolved in 5 ml of 0.1 N hydrochloric acid and the solution was dispensed in 0.5 ml aliquots into test tubes. Then, 10 μl, 100 μl, or 1000 μl of a 0.2% aqueous solution of pectin or 0.2% aqueous solution of sodium polyacrylate was added to the aliquots. The solutions were treated in the same way as in Example 11 and the concentrations of conophylline and conophyllidine in the supernatants were measured.

[4] = Solubility in distilled water or 1% SDS; type: physicochemical
Method: 10 mg of weighed Crude extract I obtained in Example 1 was added to 1 ml of distilled water or 1 ml of 1% sodium dodecyl sulfate (SDS) aqueous solution and was stirred vigorously. The solution was centrifuged at 5,000×g for 2 min and the concentrations of conophylline and conophyllidine in the supernatant were measured.

[5] = Concentration dissolved after neutralization with pectin added (partially purified by fractionation); type: physicochemical; conditions: for concentration in solution: Control: filled up only with distilled water, not neutralized
Method: 10 mg of the dried product obtained in Example 5 was dissolved in 5 ml of 0.1 N hydrochloric acid. This solution was dispensed in 0.5 ml aliquots into test tubes. Then, 10 μl or 100 μl of a 0.25% aqueous solution of pectin (Genue pectin type YM-150-LJ) was added and filled up to a total volume of 2 ml with distilled water. Meanwhile, only distilled water was added to some of the test tubes in a total volume of 2 ml.
Subsequently, the solution, after being adjusted to pH 6.0 with sodium carbonate aqueous solution, was filled up to a total volume of 2.5 ml and was centrifuged at 5,000×g for 10 min. The supernatant was recovered and the concentrations of conophylline and conophyllidine were measured. Meanwhile, the concentrations of conophylline and conophyllidine in the solutions, which was made by filled up to a total volume of 2.5 ml only with distilled water, were also measured as the control.

[6] = Storing stability of water-soluble composition extracted with citric acid; type: physicochemical; conditions: dried composition
Method: 0.1 M citric acid was added to the pulverized product of the dried leaves obtained by the same method as in Example 2, and stirred at 60° C. After insoluble matter was filtered off, the solution was neutralized to pH 6.0 with 0.1 N sodium hydroxide, dispensed in 1 ml aliquots into test tubes, and concentrated to dryness by centrifugation.
First, 1 ml of 50% ethanol was added to one of the test tubes to dissolve solid content. The solution was filtered through a 0.2 μm membrane filter, and then conophylline and conophyllidine were analyzed by HPLC.
Next, the remaining test tubes were divided into five groups, each of which being stored at −30° C. (shielded from light), 4° C. (shielded from light), 4° C. (not shielded from light), 30° C. (shielded from light), and 50° C. (shielded from light). After a lapse of a certain period of time, the composition was dissolved by addition of 50% ethanol, filtered, and analyzed by HPLC.

[7] = test system: model animals of neonatal diabetes; conditions: intraperitoneally administered; cited from earlier work
[8] = Crude extract II absorption test in GK rats; type: in vivo, rat; conditions: Crude extract II 4.3 or 13 mg/kg, 1.5-24 h
Method: Sixteen 10-week old GK rats were divided into four groups (n=4 per group). Two groups (the fasted groups) were fasted for 16 hours, and the remaining two groups (the fed groups) were allowed ad libitum access to chow and water. The fed groups received Crude extract II (containing Tween 80) at 4.3 mg/kg or 13 mg/kg. Blood was taken at 1.5, 3, 6, 12, and 24 hours post administration and plasma conophylline concentration was measured. Likewise, the fasted groups also received Crude extract II and plasma conophylline concentration was measured.

[9] = pH 6.0, Sodium polyacrylate 10 μg/ml
[10] = pH 6.0, Sodium polyacrylate 100 μg/ml
[11] = male, Crj:CD(SD) IGS, rat, in vivo, po, blood concentration

Row | SMILES | concentration in solution [2] | concentration in supernatant after neutralization ([2]; pH 6.0, Pectin 10 μg/ml) | concentration in supernatant after neutralization ([2]; pH 6.0, Pectin 100 μg/ml) | concentration in supernatant after neutralization [2, 9] | concentration in supernatant after neutralization [2, 10] | concentration in supernatant after neutralization ([2]; pH 6.0, additive None) | concentration in solution [3] | concentration in supernatant after neutralization ([3]; pH 6.0, Pectin 10 μg/ml) | concentration in supernatant after neutralization ([3]; pH 6.0, Pectin 100 μg/ml) | concentration in supernatant after neutralization ([3]; pH 6.0, Pectin 1000 μg/ml) | concentration in supernatant after neutralization [3, 9] | concentration in supernatant after neutralization [3, 10] | concentration in supernatant after neutralization ([3]; pH 6.0, additive None) | concentration in solution [5] | concentration in supernatant after neutralization ([5]; pH 6.0, Pectin 10 μg/ml) | concentration in supernatant after neutralization ([5]; pH 6.0, Pectin 100 μg/ml) | concentration in supernatant after neutralization ([5]; pH 6.0, pectin 0 μg/ml) | also measured
1 | CC[C@@]12C=CCN3CC[C@]4(C(=C(C(=O)OC)C1)Nc1cc5c(cc14)[C@H]1[C@@H](O5)[C@H](O)[C@]4(CC)CC(C(=O)OC)=C5Nc6c(cc(O)c(OC)c6OC)[C@@]56CCN1[C@H]46)[C@H]32 (stereo in doubt) [Conophyllidine, conophyllidine] | 11830 ng/mL | 2420 ng/mL | 5190 ng/mL | 2500 ng/mL | 8450 ng/mL | 3270 ng/mL | 16080 ng/mL | 130 ng/mL | 570 ng/mL | 2740 ng/mL | 170 ng/mL | 6990 ng/mL | 160 ng/mL | 4600 ng/mL | 2200 ng/mL | 3000 ng/mL | 1500 ng/mL | blood concentration ([1]; Crude extract I oral, rats (animals 3, 4), 0.5 h): 65 ng/mL; blood concentration ([1]; Crude extract I oral, rats (animals 3, 4), 1 h): 62 ng/mL; blood concentration ([1]; Crude extract I oral, rats (animals 3, 4), 2 h): 32 ng/mL; blood concentration ([1]; Crude extract I oral, rats (animals 3, 4), 4 h): 25 ng/mL; blood concentration ([1]; Crude extract I oral, rats (animals 3, 4), 8 h): 13 ng/mL; blood concentration ([1]; Crude extract I oral, rats (animals 3, 4), 24 h): 9 ng/mL; concentration at 0.5 h ([1]; male, Crj:CD(SD) IGS, rat, in vivo, po, 0.05 g/kg, Crude extract I oral, rats (animals 3, 4), 0.5 h, read-out: blood concentration): 54 ng/mL; concentration at 1 h ([1]; male, Crj:CD(SD) IGS, rat, in vivo, po, 0.05 g/kg, Crude extract I oral, rats (animals 3, 4), 1 h, read-out: blood concentration): 61 ng/mL; concentration at 2 h ([1]; male, Crj:CD(SD) IGS, rat, in vivo, po, 0.05 g/kg, Crude extract I oral, rats (animals 3, 4), 2 h): 40 ng/mL; concentration at 4 h ([1]; male, Crj:CD(SD) IGS, rat, in vivo, po, 0.05 g/kg, Crude extract I oral, rats (animals 3, 4), 4 h): 36 ng/mL; concentration at 8 h ([1]; male, Crj:CD(SD) IGS, rat, in vivo, po, 0.05 g/kg, Crude extract I oral, rats (animals 3, 4), 8 h): 24 ng/mL; concentration at 24 h ([1]; male, Crj:CD(SD) IGS, rat, in vivo, po, 0.05 g/kg, Crude extract I oral, rats (animals 3, 4), 24 h, read-out: blood concentration): 13 ng/mL; concentration in supernatant ([4]; 10 mg Crude extract I in 1 ml 1% SDS): 2970 ng/mL; concentration in supernatant ([4]; 10 mg Crude extract I in 1 ml Distilled water): 680 ng/mL; storing stability ([6]; 4° C., not shielded from light): gradually decreased (degraded); storing stability ([6]; −30, 4, 30, 50° C., shielded from light): very stable
2 | CC[C@@]12CC(C(=O)OC)=C3Nc4cc5c(cc4[C@@]34CCN(C[C@H]3O[C@H]31)[C@@H]24)[C@@H]1[C@H](O5)[C@@H](O)[C@@]2(CC)CC(C(=O)OC)=C3Nc4c(cc(O)c(OC)c4OC)[C@@]34CCN1[C@@H]24 [Conophylline, conophylline] | 8420 ng/mL | 1740 ng/mL | 3830 ng/mL | 1870 ng/mL | 4850 ng/mL | 2520 ng/mL | 11280 ng/mL | 270 ng/mL | 550 ng/mL | 2590 ng/mL | 240 ng/mL | 5150 ng/mL | 190 ng/mL | 3700 ng/mL | 2100 ng/mL | 2600 ng/mL | 1500 ng/mL | blood concentration ([1]; male, Crj:CD(SD) IGS, rat, in vivo, po, 0.5 h): 398 ng/mL; blood concentration ([1]; male, Crj:CD(SD) IGS, rat, in vivo, po, 1 h): 472 ng/mL; blood concentration ([1]; male, Crj:CD(SD) IGS, rat, in vivo, po, 24 h): 108 ng/mL; concentration at 0.5 h [1, 11]: 332 ng/mL; concentration at 1 h [1, 11]: 270 ng/mL; concentration at 24 h [1, 11]: 90 ng/mL; blood glucose levels [7]: significantly suppressing increased blood glucose levels; blood (plasma) conophylline concentration, fasted vs fed groups [8]: slightly higher in the fasted groups, but no significant difference
